Assay results reported in PubChem BioAssay AID489027 (Sanford-Burnham Center for Chemical Genomics, 2010).
The source made the active and inactive calls. The rule behind the calls is not given here.

Target: UPR counterscreen luciferase reporter, luminescence
Assay: activators in UPR counterscreen luciferase reporter, dose response, counter-screen for adaptive UPR activator project, cell-based, luminescence (AID 489027)

| SMILES | EC50 |
| --- | --- |
| Cc1cccc2sc(NC(=O)c3cc(S(=O)(=O)N(C)C)ccc3N3CCCC3)nc12 | 7.43 µM |
| COc1cccc(/C=N/Nc2ccc([N+](=O)[O-])cn2)c1O | > 80 µM (inactive) |
| Cc1ccc(-c2nn(CC(=O)NCc3cc(-c4nn(C)c(=O)c5ccccc45)ccc3C)c(=O)c3ccccc23)cc1 | 13.1 µM |
| NS(=O)(=O)c1ccc(N/N=C/c2cn(-c3ccccc3)nc2-c2ccccc2)c([N+](=O)[O-])c1 | 7.34 µM |
| Clc1ccc(-c2ccc(/C=N/Nc3nncc(-c4ccccc4)n3)o2)cc1 | 13.6 µM |
| c1cc(SC2CCCCC2)cc(-c2nc3cnccn3c2NC2CCCCC2)c1 | 12.6 µM |
| CCN(CC)c1ccc(N=Cc2c(O)n(Cc3ccccc3)c(=O)[nH]c2=O)cc1 | inactive |
| CC(C)(C)C(=O)NC(=S)NNC(=O)c1ccc(-c2ccccc2)cc1 | 8.05 µM |
| N#Cc1ccc(N/N=C/c2cn(-c3ccccc3)nc2-c2ccccc2)c([N+](=O)[O-])c1 | inactive |
| Cc1cc(SCC(=O)c2ccc(O)c(O)c2)n2nc(C)c(-c3ccccc3)c2n1 | > 80 µM (inactive) |
| CCOC(=O)c1nn(-c2ccc(OCC)cc2)c2nc(-c3ccco3)c(C#N)c(=O)n12 | inactive |
| CCC[C@@H](CN[C@@H](CNC)[C@H](C)CC)NCC1CCC(C(C)(C)C)CC1 (stereo not given in full) | 6.95 µM |
| CCOC(=O)c1c(NC(=O)c2cc(-c3ccc(O)cc3)on2)sc(C(C)=O)c1C | > 80 µM (inactive) |
| CCOc1ccc(Cn2c3ccc(OC)cc3c3nc4ccccc4nc32)cc1OC | inactive |
| Cn1c(/C=C/c2ccc(Cl)cc2Cl)c([N+](=O)[O-])c(=O)n(C)c1=O | 12.8 µM |
| O=C1c2ccccc2C(=O)N1/N=C/c1ccc(O)c(O)c1 | inactive |
| Cc1cccc(Nc2nc3c(S(=O)(=O)c4ccccc4)nnn3c3ccccc23)c1C | 12.3 µM |
| O=c1cc(CN2CCN(c3ccccc3)CC2)c2cc(O)c(-c3ccccc3)cc2o1 | 7 µM |
| O=C(Nc1ccc(Oc2ccc(NC(=O)Nc3ccccc3Cl)cc2)cc1)Nc1ccccc1Cl | > 80 µM (inactive) |
| Cc1ccnc(N/C=C(\C#N)c2nc(-c3cccc(Br)c3)cs2)c1 | 19 µM |
| COc1ccc2nc(C)cc(SCC(=O)N/N=C/c3cccc4ccccc34)c2c1 | inactive |
| CCOC(=O)c1c(NC(=O)CSc2nnc3c(n2)[nH]c2ccc(F)cc23)sc(C(C)=O)c1C | 17.4 µM |
| O=c1cc(C(Cl)(Cl)Cl)oc2c1ccc1ccccc12 | > 80 µM (inactive) |
| Cc1nc(SCC(=O)Nc2ccc(F)cc2)c(C#N)c(C)c1CC(=O)c1ccc(Br)cc1 | > 80 µM (inactive) |

| SMILES | EC50 |
| --- | --- |
| CC(C)C(=O)N(c1cc2sc(=O)oc2c2ccccc12)S(=O)(=O)c1cccs1 | 16.3 µM |
| CC1(C)CC[C@@]23CC[C@]4(C)[C@@](OC2=O)(C3C1)[C@H]1O[C@H]1C1[C@@]2(C)CC[C@H](O)C(C)(C)C2CC[C@]14C (stereo not given in full) | inactive |
| COc1ccc(-c2cc(C(F)F)n3ncc(C(=O)N4CCc5ccccc5C4)c3n2)cc1 | inactive |
| Cc1cc(N2CCN(c3nc(-c4ccc([N+](=O)[O-])cc4)cs3)CC2)c2ccccc2n1 | 15.2 µM |
| CCCCCCCCCCOC(=O)Cn1c(COc2ccccc2C)[n+](C)c2ccccc21 | > 80 µM (inactive) |
| COc1ccc(Br)cc1-c1nc2c(c(=O)[nH]c(=O)n2Cc2ccccc2)n1C | > 80 µM (inactive) |
| Cc1ccc(-c2nnn(CC(=O)N(Cc3cccs3)C(C(=O)NC3CCCCC3)c3ccco3)n2)o1 (stereo not given) | > 80 µM (inactive) |
| O=C(NCCC1=CCCCC1)C(=O)NCC(c1ccco1)N1CCN(c2ccc(F)cc2)CC1 (stereo not given) | > 80 µM (inactive) |
| CC1=CC(C)[C@H](/C=N/n2c(=O)[nH]c3c([nH]c4ccc(Br)cc43)c2=O)C(C)C1 (stereo not given in full) | inactive |
| Cc1ccc(NC(=O)c2cc(S(=O)(=O)N(C)C)ccc2N2CCCC2)cc1F | inactive |
| Cc1cc(C)c2c(CCl)cc(=O)oc2c1 | 19.1 µM |
| COc1cc(NC(=O)c2cncc(-c3ccc(C#N)cc3)c2)cc(C(=O)Nc2cccc(C(F)(F)F)c2)c1 | inactive |
| Oc1cc(-c2cccnc2)cc2cccnc12 | inactive |
| CCOc1cc(/C=C2/C(=N)N3C=CSC3=NC2=O)ccc1OCCCOc1ccccc1C | 17.7 µM |
| Cc1ccc(C2=Nc3ccc(Br)cc3C(c3ccncc3)=NN2)cc1 | inactive |
| CC(C)c1ccc(C2C3=C(COC3=O)Nc3cc4c(cc32)OCO4)cc1 (stereo not given) | inactive |
| COc1cc(NC(=O)c2cccs2)ccc1NC(=O)c1cc2ccccc2o1 | > 80 µM (inactive) |
| OC(CNCC1CCCO1)Cn1c2ccc(Br)cc2c2cc(Br)ccc21 (stereo not given) | > 80 µM (inactive) |
| c1ccc(Oc2c3ccccc3nc3ccccc23)cc1 | inactive |
| CC1CN(S(=O)(=O)c2ccc(C(=O)Nc3nc(-c4cc5ccccc5o4)cs3)cc2)CC(C)O1 (stereo not given) | 13.2 µM |
| CCC(=O)Nc1nnc(SCC(=O)c2ccc3c(c2)Cc2ccccc2-3)s1 | inactive |
| CCOc1ccc(C(=O)Nc2cc(-c3nc4ccccc4[nH]3)ccc2Cl)cc1[N+](=O)[O-] | 17.7 µM |
| Cc1ccc(C(=O)Cn2c(C(=O)/C=C/c3ccccc3)nc3ccccc32)cc1 | 10.9 µM |
| O=C(Nc1ccc(O)c2c(=O)cc(-c3cccc(Cl)c3)oc12)c1cccc(Cl)c1 | inactive |

| SMILES | EC50 |
| --- | --- |
| O=C1c2cccc3cc(Br)cc(c23)C(=O)N1Nc1ccc(Br)cc1 | inactive |
| Cc1ccc(NC(=O)COc2ccc(/C=C3/SC(=Nc4ccccc4)N(Cc4cccnc4)C3=O)cc2)cc1 | 19.6 µM |
| COc1cc(/C=C(/C#N)c2nc3ccccc3[nH]2)ccc1OCC(=O)Nc1ccccc1C | 3.77 µM |
| CCCCCCCCCCOC(=O)Cn1c(COc2ccc(C)cc2)[n+](C)c2ccccc21 | > 80 µM (inactive) |
| CN(C)CCCN(C(=O)c1ccc(S(=O)(=O)N2CCc3ccccc3C2)cc1)c1nc2ccc(F)cc2s1 | 8.2 µM |
| C#CCn1c(=NC(=O)c2ccc(Br)s2)sc2cccc(OC)c21 | > 80 µM (inactive) |
| O=Cc1cc2ccccc2nc1SCc1ccc(Cl)c(Cl)c1 | inactive |
| O=C(Nc1nc2ccccc2s1)c1cc2c(s1)-c1ccccc1OC2 | inactive |
| Cn1ncc(N=Cc2c(O)ccc3ccccc23)c1C(=O)Nc1cccc(Cl)c1 | > 80 µM (inactive) |
| Cn1nc(C(F)(F)F)c(/C=N/OC(=O)c2ccccc2)c1SCc1ccc(Cl)cc1 | inactive |
| CCc1ccc(OCCNc2cc(N3CCNC(C)C3)ccc2[N+](=O)[O-])cc1 (stereo not given) | > 80 µM (inactive) |
| O=C(NC(=S)Nc1ccc(NC(=O)c2cccs2)cc1)c1cc2ccccc2o1 | inactive |
| CCc1ccc2[nH]c3nc(SCc4nnc(-c5ccc(C)cc5)o4)nnc3c2c1 | inactive |
| O=C(/C=C/c1ccco1)NC(=S)Nc1ccc(O)c(-c2nc3ccccc3s2)c1 | 11 µM |
| COc1cccc2sc(N3CCN(c4nc5ccccc5s4)CC3)nc12 | 16.8 µM |
| Cc1cc(NC(=O)c2cc(-c3ccncc3)nc3ccccc23)ccc1Br | > 80 µM (inactive) |
| COc1cccc(-n2c(SCC(=O)N3CCc4ccccc43)nnc2-c2c[nH]c3ccccc23)c1 | > 80 µM (inactive) |
| Cc1ccc(Cc2cnc(NC(=O)/C(C#N)=C/c3ccc(-c4cccc([N+](=O)[O-])c4)o3)s2)cc1 | 12 µM |
| O=C(NCC1CCCO1)c1nn2c(C(F)(F)F)cc(-c3cc(Br)cs3)nc2c1Br (stereo not given) | > 80 µM (inactive) |
| Cc1ccc2c(c1)c(N=NC(N)=S)c(O)n2Cc1ccccc1 | > 80 µM (inactive) |
| CCOC(=O)C(=CNc1nc(-c2ccccc2)c(C(=O)Nc2ccc(-c3ccccc3)cc2)s1)C(=O)OCC | inactive |
| CCn1c(/C=C/c2c(C)[nH]c3ccccc23)nc2ccccc2c1=O | > 80 µM (inactive) |
| FC(F)(F)c1nnc2c(Sc3ccccc3)nc3ccc(Cl)cc3n12 | 4.29 µM |
| COc1ccc(OCc2n(CC(=O)OC3CC(C)CCC3C(C)C)c3ccccc3[n+]2C)cc1 (stereo not given) | > 80 µM (inactive) |

| SMILES | EC50 |
| --- | --- |
| COc1ccc(C(=O)Nc2cccc(/C=C/c3nc4ccccc4c(=O)[nH]3)c2)cc1 | > 80 µM (inactive) |
| CCC(=O)Nc1cccc(C(=O)/C=C/c2ccc(F)cc2)c1 | 12.1 µM |
| CCCCNc1c(-c2ccc(SC(C)CC)cc2)nc2cnccn12 (stereo not given) | 14.1 µM |
| COc1cc(OC)c2c(-c3cccc(-c4ccc(CO)cc4)c3)cc(=O)oc2c1 | > 80 µM (inactive) |
| CCOc1cccc(C(=O)Nc2cccc(-c3nnc(-c4ccc(C)cc4)o3)c2)c1 | 12.1 µM |
| Cc1ccc2c(c1)C(c1ccc(N3CCOCC3)cc1)=NNC(c1cccs1)=N2 | inactive |
| C[C@@H]1C[C@H]2[C@@H]3CCC4=CC(=O)C=C[C@]4(C)[C@@]3(Cl)[C@@H](O)C[C@]2(C)[C@@]1(OC(=O)c1ccco1)C(=O)CCl | > 80 µM (inactive) |
| NS(=O)(=O)c1ccc(NC(=O)COC(=O)c2cn(-c3ccccc3)nc2-c2ccc(F)cc2)cc1 | inactive |
| COc1ccc(C2NCCc3c2[nH]c2ccccc32)cc1COc1ccc(F)cc1 (stereo not given) | 18.3 µM |
| C/C(CC(C)(C)C1CCCCC1)=N\NC(N)=S | 12.1 µM |
| NCCc1c(-c2ccccc2)n(-c2ccccc2)c2ccccc12 | 17.9 µM |
| N=c1n(CC(=O)c2ccc([N+](=O)[O-])cc2)c2ccccc2n1Cc1ccc(Cl)cc1 | 7.87 µM |
| COc1ccc(/C=C/c2nc3cc(-c4ccccc4)ccc3o2)cc1O | 14.6 µM |
| COc1ccc(-c2csc3nc(-c4ccc(C)cc4)oc(=O)c23)cc1OC | > 80 µM (inactive) |
| O=C(Nc1nc(-c2ccc3ccccc3c2)cs1)c1ccc(N2C(=O)CCC2=O)cc1 | > 80 µM (inactive) |
| Cc1nn(Cc2c(Cl)cccc2Cl)c(C)c1NC(=O)c1cn(-c2ccccc2)nc1-c1ccccc1 | 3.67 µM |
| COc1ccc(-c2csc(NC(=S)NC(=O)/C=C/c3ccccc3)n2)cc1Br | inactive |
| Cc1ccc(Nc2nc3ccc(Cl)cc3n3cnnc23)cc1F | inactive |
| O=c1oc(CCCO)cc2ccc(/C=C/c3cccc([N+](=O)[O-])c3)cc12 | > 80 µM (inactive) |
| CCc1ccc2[nH]c3nc(SCC(=O)NNC(=O)c4ccc(C(C)(C)C)cc4)nnc3c2c1 | inactive |
| O=C1NC(=O)N(Cc2ccccc2)C(=O)/C1=C\c1ccco1 | inactive |
| Cc1c(C(=O)Nc2nccs2)oc2ccc(Br)cc12 | > 80 µM (inactive) |
| COC(=O)c1c(C)oc2ccc(N(C(=O)Oc3ccccc3)S(=O)(=O)c3ccc(Cl)c([N+](=O)[O-])c3)cc12 | 12.5 µM |
